{"source": "patent US20240316000A1", "about": "“METHODS OF TREATMENT” (DIFFUSION PHARMACEUTICALS LLC, priority 2021, published 2024)", "key": {"[1]": {"tested_on": "healthy volunteers exercising at altitude", "experiment": "Crossover study in healthy volunteers exercising at simulated altitude of 15,000 feet (arterial blood gas, VO2 max, SpO2, lactate)", "assay_type": "in vivo, human", "description": "This is a double-blind, randomized, placebo-controlled crossover study designed to investigate TSC's effects on oxygen enhancement using an experimental model to induce hypoxia in study participants. The primary endpoints measured in this study are maximal oxygen consumption and partial pressure of arterial blood oxygen in normal healthy volunteers subjected to incremental levels of physical exertion while exposed to hypoxic and hypobaric conditions at a simulated altitude of 15,000 feet above sea level. The secondary endpoints are to assess the effect of TSC on SpO2 and lactate.\nA total of 30 healthy volunteers are enrolled in the trial with each subject serving as their own control by completing the experiment twice in a random, blinded order in the same day with a 3-hour rest and wash out period between experimental intervals. During one ascent, study subjects receive intravenous (IV) placebo administration and the other ascent the same subject receives a single IV dose of TSC at one of three dose levels (0.5 mg/kg, 1.5 mg/kg, or 2.5 mg/kg).\nPrimary analyses will be based on sequence matched changes in median PaO2 and median VO2 following a single administration of TSC versus placebo in subjects exposed to simulated altitude and undergoing exercise. This is a crossover design, repeated measures study where each subject will serve as their own control. Each subject will be randomized to a TSC dose and will also be randomized to their altitude exposure sequence on the day of testing."}, "[2]": {"tested_on": "healthy volunteers exercising at altitude", "experiment": "Safety assessment in the altitude study", "assay_type": "in vivo, human", "details": "all doses tested; no serious adverse events reported", "description": "Adverse Events (AE), and Serious Adverse Events (SAE) will be reported per protocols. Laboratory values (complete blood count [CBC], basic metabolic panel [BMP] HIV, HBsAg, HCVAb), vital signs (blood pressure, heart rate, respiratory rate, temperature), and oxygen saturation (SpO2) will be monitored."}, "[3]": {"experiment": "Solubility of TSC in water with gamma-cyclodextrin", "assay_type": "physicochemical"}, "[4]": {"experiment": "Stability of TSC versus pH", "assay_type": "physicochemical"}, "[5]": {"experiment": "Absorption after intramuscular injection of TSC with gamma cyclodextrin", "assay_type": "in vivo", "details": "injected intramuscularly with gamma cyclodextrin; rats"}, "[6]": {"details": "2.5 mg/kg, end of exercise and 10 minutes post-exercise"}, "[7]": {"details": "change last exercise to 10-minutes post-exercise, 2.5 mg/kg vs other TSC doses and placebo"}, "[8]": {"details": "last exercise value minus baseline, 2.5 mg/kg vs other TSC doses and placebo"}, "[9]": {"details": "last exercise value, 2.5 mg/kg vs other TSC doses and placebo"}}, "data": [{"smiles": "CC(/C=C/C=C(\\C)C(=O)[O-])=C\\C=C\\C=C(C)\\C=C\\C=C(/C)C(=O)O.[Na+]", "note": "[TSC, trans sodium crocetinate]", "values": [{"measurement": "Post-exercise recovery (pH, lactate, SpO2 and other markers)", "setting": "[1]; 2.5 mg/kg, 10 minutes post-exercise versus last exercise measurements", "value": "positive effect on post-exercise recovery"}, {"measurement": "Blood pH following exercise under hypoxic conditions", "setting": "[1]; [6]", "value": "increase in pH"}, {"measurement": "Lactate following exercise under hypoxic conditions", "setting": "[1]; [6]", "value": "decrease in lactate"}, {"measurement": "Effects on pH at the end of the exercise period versus baseline, compared to placebo", "setting": "[1]; 2.5 mg/kg, p<0.1", "value": "significantly different"}, {"measurement": "Intra-day maximal oxygen consumption tests", "setting": "[1]; 0.5, 1.5, 2.5 mg/kg IV", "value": "no observed changes"}, {"measurement": "Partial pressure of arterial blood oxygen", "setting": "[1]; 0.5, 1.5, 2.5 mg/kg IV", "value": "no observed changes"}, {"measurement": "pH, least square mean", "setting": "[1]; 10-minute post-exercise change from baseline (smallest reduction), 2.5 mg/kg vs other TSC doses and placebo, p=0.01 vs placebo", "value": "highest least square mean value"}, {"measurement": "HCO3, least square mean", "setting": "[1]; 10-minute post-exercise change from baseline, 2.5 mg/kg vs other TSC doses and placebo", "value": "highest least square mean value"}, {"measurement": "Lactic acid, least square mean", "setting": "[1]; 10-minute post-exercise change from baseline, 2.5 mg/kg vs other TSC doses and placebo, p<0.05 vs 0.5 mg/kg", "value": "lowest least square mean value"}, {"measurement": "Oxygen saturation, least square mean", "setting": "[1]; 10-minute post-exercise change from baseline, 2.5 mg/kg vs other TSC doses and placebo, p<0.05 vs 0.5 mg/kg, p=0.01 vs placebo", "value": "highest least square mean value"}, {"measurement": "PAO2, least square mean", "setting": "[1]; 10-minute post-exercise change from baseline, 2.5 mg/kg vs other TSC doses and placebo, separates statistically from 0.5 mg/kg", "value": "highest least square mean value"}, {"measurement": "pH, change", "setting": "[1]; change last exercise to 10-minutes post-exercise, 2.5 mg/kg", "value": "smallest change"}, {"measurement": "Lactic acid, least square mean", "setting": "[1]; change last exercise to 10-minutes post-exercise, 2.5 mg/kg and 1.5 mg/kg vs other TSC doses and placebo", "value": "lowest least square mean value"}, {"measurement": "HCO3, least square mean", "setting": "[1]; [7]", "value": "highest least square mean value"}, {"measurement": "Oxygen saturation, least square mean", "setting": "[1]; [7]", "value": "highest least square mean value"}, {"measurement": "PACO2, least square mean", "setting": "[1]; [7]", "value": "highest least square mean value"}, {"measurement": "PAO2, least square mean", "setting": "[1]; [7]", "value": "highest least square mean value"}, {"measurement": "PAO2, least square mean", "setting": "[1]; last exercise value minus baseline, 0.5 mg/kg TSC dose and placebo vs other TSC doses", "value": "lowest least square mean value"}, {"measurement": "HCO3, least square mean", "setting": "[1]; [8]", "value": "highest least square mean value"}, {"measurement": "Oxygen saturation, least square mean", "setting": "[1]; [8]", "value": "lowest least square mean value"}, {"measurement": "VO2 maximum, least square mean", "setting": "[1]; [8]", "value": "lowest least square mean value"}, {"measurement": "pH, least square mean", "setting": "[1]; last exercise value minus baseline, 2.5 mg/kg vs other TSC doses and placebo, separates statistically from 0.5 mg/kg", "value": "highest least square mean value"}, {"measurement": "Lactic acid, least square mean", "setting": "[1]; last exercise value minus baseline, 2.5 mg/kg vs other TSC doses and placebo, trend lower with dose", "value": "lowest least square mean value"}, {"measurement": "PACO2, least square mean", "setting": "[1]; [9]", "value": "highest least square mean value"}, {"measurement": "pH, least square mean", "setting": "[1]; [9]", "value": "highest least square mean value"}, {"measurement": "Lactic acid, least square mean", "setting": "[1]; last exercise value, 2.5 mg/kg vs other TSC doses and placebo, p<0.1 vs 0.5 mg/kg, trend lower with dose", "value": "lowest least square mean value"}, {"measurement": "Oxygen saturation, least square mean", "setting": "[1]; last exercise value, 2.5 mg/kg vs other TSC doses and placebo, p<0.1 vs 1.5 mg/kg", "value": "lowest least square mean value"}, {"measurement": "HCO3, least square mean", "setting": "[1]; last exercise value, 2.5 mg/kg vs other TSC doses and placebo, separates statistically from 0.5 mg/kg", "value": "highest least square mean value"}, {"measurement": "PAO2, least square mean", "setting": "[1]; last exercise value, 2.5 mg/kg vs other TSC doses and placebo, separates statistically from 1.5 mg/kg", "value": "lowest least square mean value"}, {"measurement": "Sequence effect in subjects who received TSC in the first ascent of the day", "setting": "[1]; pH change from baseline, p<0.05 placebo first vs second", "value": "carry-over"}, {"measurement": "Oxygen saturation, least square mean", "setting": "[1]; post-exercise value, 2.5 mg/kg vs other TSC doses and placebo", "value": "highest least square mean value"}, {"measurement": "PACO2, least square mean", "setting": "[1]; post-exercise value, 2.5 mg/kg vs other TSC doses and placebo, p<0.05 vs 0.5 mg/kg", "value": "highest least square mean value"}, {"measurement": "Lactic acid, least square mean", "setting": "[1]; post-exercise value, 2.5 mg/kg vs other TSC doses and placebo, p<0.05 vs 0.5 mg/kg, p=0.01 vs placebo", "value": "lowest least square mean value"}, {"measurement": "pH, least square mean", "setting": "[1]; post-exercise value, 2.5 mg/kg vs other TSC doses and placebo, separates from 0.5 mg/kg, p=0.01 vs placebo", "value": "highest least square mean value"}, {"measurement": "HCO3, least square mean", "setting": "[1]; post-exercise value, 2.5 mg/kg vs other TSC doses and placebo, separates statistically from 0.5 mg/kg", "value": "highest least square mean value"}, {"measurement": "Safety and tolerability", "setting": "[2]", "value": "safe and well tolerated at all doses tested"}, {"measurement": "TSC content of aqueous solutions", "setting": "[3]; TSC and gamma-cyclodextrin", "value": "≤ 44 milligrams of TSC per ml of solution"}, {"measurement": "TSC content of solutions", "setting": "[3]; formulated with a cyclodextrin and mannitol", "value": "over 20 mg TSC/ml of solution"}, {"measurement": "Stability as a function of pH", "setting": "[4]", "value": "more stable at higher pHs"}, {"measurement": "Absorption into the blood stream", "setting": "[5]", "value": "Absorption is quick"}]}]}
